Experimental data: paper PMC12051620, “Molecular basis underlying the specificity of an antagonist AA92593 for mammalian melanopsins” (The Journal of Biological Chemistry, 2025)

Biological target: T1, mouse melanopsin F94^2.61C/S188^ECL2T/S269^6.52A mutant (Mus musculus, UniProt Q9QXZ9, F126C/S221T/S310A)
T1 construct: expressed in transfected cells; host or cells: COS-1
Assay: NanoBiT Gq dissociation assay
Assay type: cell-based
Conditions: 1.67 and 16.7 μM AA92593; COS-1 cells
Source text: As described above, we have assessed the inhibitory effect of AA92593 using the GsX GloSensor assay. To confirm whether an antagonistic effect could be observed in another experimental system, we used the NanoBiT G protein dissociation assay ([23]). In this assay, Gq activation (dissociation) is detected as a decrease in NanoLuc luminescence from the Lg-BiT fragment inserted with Gqα and the Sm-BiT fragment fused with Gβγ (see “Experimental procedures”) ([23], [24]). If an antagonistic effect is observed in the NanoBiT assay, the light-dependent decrease in luminescence (Gq dissociation) by melanopsin would be reduced in the presence of AA92593. […]
For GloSensor assay, opsins, GloSensor assay sensor (coded by pGlo-22F), and NanoBiT-tagged G proteins were transiently expressed in COS-1 cells (kindly provided from Dr David Farrens, Oregon Health and Science University) using PEI as described previously ([24], [52]). […] For GFP-fluorescence microscopy, a 35-mm cell culture dish (IWAKI) was transfected with 2 μg melanopsin-GFP plasmid and 8 μg PEI in 400 μl Opti-mem and 1.2 ml D-MEM. […]
The transfected COS-1 cells were incubated at 37 °C, 5% CO2 for 1 day, and the medium was aspirated, followed by the addition of 50 μl of HBSS containing 33.3, 3.33, or 0 μM AA92593, 0.5% DMSO, and 10 μM coelenterazine h (Wako). […] Luminescence was measured using GM-2000 or GM-3510 microplate reader (Promega). […]

T1 sequence (Q9QXZ9 1-381 F126C/S221T/S310A): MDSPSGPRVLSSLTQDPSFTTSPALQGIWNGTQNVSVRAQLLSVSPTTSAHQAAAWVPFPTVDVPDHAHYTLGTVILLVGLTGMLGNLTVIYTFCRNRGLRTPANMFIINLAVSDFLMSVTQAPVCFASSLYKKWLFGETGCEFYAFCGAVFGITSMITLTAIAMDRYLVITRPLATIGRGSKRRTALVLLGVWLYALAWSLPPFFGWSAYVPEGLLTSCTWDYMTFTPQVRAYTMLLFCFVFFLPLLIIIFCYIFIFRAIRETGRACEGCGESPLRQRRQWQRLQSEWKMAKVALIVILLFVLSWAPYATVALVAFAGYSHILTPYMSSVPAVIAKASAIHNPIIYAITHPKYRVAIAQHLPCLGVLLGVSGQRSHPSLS

COc1ccc(S(=O)(=O)N2CCCCC2)cc1C [AA92593]
antagonistic effect on Gq activation compared to WT: similarly reduced
